In PubChem BioAssay AID1963836 (Molecular Pharmacology Branch, DTP, NCI, 2024):

System: 857933-349-R-J2-PDC complex spheroid viability
Assay: Anticancer human tumor 857933-349-R-J2-PDC patient-derived colon adenocarcinoma cell line growth inhibition [POLQ]
Details: for IC50: curve of first compound; for viability, T/C: stronger effect = lower value
Procedure, shortened: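 Patient-derived tumour cells were co-cultured with HUVEC and mesenchymal stem cells as multicellular spheroids at 37 °C. They were treated with POLQ inhibitors (novobiocin, ART-558, RP6685) alone or combined with other agents. Top concentrations were at or near clinical Cmax (otherwise 10 microM; SN-38 at 1 microM), decreasing in half-log steps.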

[1] = second compound 0.0316 µM, first compound 0.0316 µM
[2] = second compound 0.0316 µM, first compound 0.1 µM
[3] = second compound 0.0316 µM, first compound 0.316 µM
[4] = second compound 0.0316 µM, first compound 1 µM
[5] = second compound 0.0316 µM, first compound 3.16 µM
[6] = second compound 0.0316 µM, first compound 10 µM
[7] = second compound 0.1 µM, first compound 0.0316 µM
[8] = second compound 0.1 µM, first compound 0.1 µM
[9] = second compound 0.1 µM, first compound 0.316 µM
[10] = second compound 0.1 µM, first compound 1 µM
[11] = second compound 0.1 µM, first compound 3.16 µM
[12] = second compound 0.1 µM, first compound 10 µM
[13] = second compound 0.316 µM, first compound 0.0316 µM
[14] = second compound 0.316 µM, first compound 0.1 µM
[15] = second compound 0.316 µM, first compound 0.316 µM
[16] = second compound 0.316 µM, first compound 1 µM
[17] = second compound 0.316 µM, first compound 3.16 µM
[18] = second compound 0.316 µM, first compound 10 µM
[19] = second compound 1 µM, first compound 0.0316 µM
[20] = second compound 1 µM, first compound 0.1 µM
[21] = second compound 1 µM, first compound 0.316 µM
[22] = second compound 1 µM, first compound 1 µM
[23] = second compound 1 µM, first compound 3.16 µM
[24] = second compound 1 µM, first compound 10 µM
[25] = second compound 3.16 µM, first compound 0.0316 µM
[26] = second compound 3.16 µM, first compound 0.1 µM
[27] = second compound 3.16 µM, first compound 0.316 µM
[28] = second compound 3.16 µM, first compound 1 µM
[29] = second compound 3.16 µM, first compound 3.16 µM
[30] = second compound 3.16 µM, first compound 10 µM
[31] = second compound 10 µM, first compound 0.0316 µM
[32] = second compound 10 µM, first compound 0.1 µM
[33] = second compound 10 µM, first compound 0.316 µM
[34] = second compound 10 µM, first compound 1 µM
[35] = second compound 10 µM, first compound 3.16 µM
[36] = second compound 10 µM, first compound 10 µM
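Further: spheroids exposed to compounds for seven days before readout.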

In the case of `COc1cc(C2c3cc4c(cc3C(OC3OC5COC(C)OC5C(O)C3O)C3COC(=O)C23)OCO4)cc(OC)c1O` (stereo not drawn) + Nc1ccc(C#CCN(C(=O)Cc2ncc(C(F)(F)F)cc2C(F)(F)F)c2ccc(F)cc2)nn1, the IC50 (second compound 0.0316 µM) is reported as 1290 nM, the IC50 (second compound 0.1 µM) is reported as 747 nM and the IC50 (second compound 0.316 µM) is reported as 567 nM. It also gave an IC50 (second compound 1 µM) of 532 nM, an IC50 (second compound 3.16 µM) of 512 nM and an IC50 (second compound 10 µM) of 599 nM. The viability, T/C [1] was 97.1%, the viability, T/C [2] was 64.8% and the viability, T/C [3] was 64.5%. The viability, T/C [4] was 64%, the viability, T/C [5] was 38% and the viability, T/C [6] was 25.9%. For the same compound, the viability, T/C [7] was 92.5%, the viability, T/C [8] was 72.5% and the viability, T/C [9] was 53.6%. It also gave a viability, T/C [10] of 52.3%, a viability, T/C [11] of 36.8% and a viability, T/C [12] of 22.1%. The viability, T/C [13] was 94.2%, the viability, T/C [14] was 68.4% and the viability, T/C [15] was 53.5%. The viability, T/C [16] was 50.6%, the viability, T/C [17] was 35.9% and the viability, T/C [18] was 25.3%. It also gave a viability, T/C [19] of 101%, a viability, T/C [20] of 68% and a viability, T/C [21] of 54.3%. For the same compound, the viability, T/C [22] was 51.9%, the viability, T/C [23] was 33.3% and the viability, T/C [24] was 31.5%. For the same compound, the viability, T/C [25] was 85.3%, the viability, T/C [26] was 74% and the viability, T/C [27] was 53%. The viability, T/C [28] was 44.6%, the viability, T/C [29] was 31% and the viability, T/C [30] was 27.6%. For the same compound, the viability, T/C [31] was 88%, the viability, T/C [32] was 71.5% and the viability, T/C [33] was 60%. For the same compound, the viability, T/C [34] was 43.1%, the viability, T/C [35] was 34.1% and the viability, T/C [36] was 32.2%.

For `COc1cccc2c1C(=O)c1c(O)c3c(c(O)c1C2=O)CC(O)(C(=O)CO)CC3OC1CC(N)C(O)C(C)O1` (stereo not drawn) + Nc1ccc(C#CCN(C(=O)Cc2ncc(C(F)(F)F)cc2C(F)(F)F)c2ccc(F)cc2)nn1, the IC50 (second compound 0.0316 µM) was 220 nM, the IC50 (second compound 0.1 µM) was 212 nM and the IC50 (second compound 0.316 µM) was 234 nM. For the same compound, the IC50 (second compound 1 µM) was 216 nM, the IC50 (second compound 3.16 µM) was 175 nM and the IC50 (second compound 10 µM) was 149 nM. For the same compound, the viability, T/C [1] was 74.9%, the viability, T/C [2] was 63% and the viability, T/C [3] was 43.9%. The viability, T/C [4] was 5.65%, the viability, T/C [5] was 0.31% and the viability, T/C [6] was 0.26%. For the same compound, the viability, T/C [7] was 74.3%, the viability, T/C [8] was 67.1% and the viability, T/C [9] was 40.7%. For the same compound, the viability, T/C [10] was 5.86%, the viability, T/C [11] was 0.25% and the viability, T/C [12] was 0.17%. The viability, T/C [13] was 65%, the viability, T/C [14] was 85.6% and the viability, T/C [15] was 41.1%. It also gave a viability, T/C [16] of 5.61%, a viability, T/C [17] of 0.2% and a viability, T/C [18] of 0.19%. For the same compound, the viability, T/C [19] was 83%, the viability, T/C [20] was 75.7% and the viability, T/C [21] was 36.9%. It also gave a viability, T/C [22] of 9.45%, a viability, T/C [23] of 0.22% and a viability, T/C [24] of 0.23%. The viability, T/C [25] was 72.5%, the viability, T/C [26] was 60.4% and the viability, T/C [27] was 37.9%. The viability, T/C [28] was 5.43%, the viability, T/C [29] was 0.39% and the viability, T/C [30] was 0.28%. The viability, T/C [31] was 66.9%, the viability, T/C [32] was 63% and the viability, T/C [33] was 26.8%. For the same compound, the viability, T/C [34] was 6.24%, the viability, T/C [35] was 0.35% and the viability, T/C [36] was 0.32%.

Work on `Nc1ccn(C2OC(CO)C(O)C2(F)F)c(=O)n1` (stereo not drawn) + Nc1ccc(C#CCN(C(=O)Cc2ncc(C(F)(F)F)cc2C(F)(F)F)c2ccc(F)cc2)nn1 yielded an IC50 (second compound 0.0316 µM) of 87 nM, an IC50 (second compound 0.1 µM) of 114 nM and an IC50 (second compound 0.316 µM) of 125 nM. For the same compound, the IC50 (second compound 1 µM) was 121 nM, the IC50 (second compound 3.16 µM) was 109 nM and the IC50 (second compound 10 µM) was 115 nM. It also gave a viability, T/C [1] of 74.7%, a viability, T/C [2] of 46.7% and a viability, T/C [3] of 14.3%. It also gave a viability, T/C [4] of 9.47%, a viability, T/C [5] of 6.73% and a viability, T/C [6] of 6.61%. It also gave a viability, T/C [7] of 65.3%, a viability, T/C [8] of 54.7% and a viability, T/C [9] of 14.5%. For the same compound, the viability, T/C [10] was 8.76%, the viability, T/C [11] was 7.02% and the viability, T/C [12] was 6.34%. For the same compound, the viability, T/C [13] was 71.5%, the viability, T/C [14] was 59.6% and the viability, T/C [15] was 9.98%. The viability, T/C [16] was 9.36%, the viability, T/C [17] was 5.55% and the viability, T/C [18] was 7.25%. For the same compound, the viability, T/C [19] was 81%, the viability, T/C [20] was 57.6% and the viability, T/C [21] was 12%. For the same compound, the viability, T/C [22] was 11.3%, the viability, T/C [23] was 9.17% and the viability, T/C [24] was 6.73%. It also gave a viability, T/C [25] of 69.6%, a viability, T/C [26] of 52.8% and a viability, T/C [27] of 17.3%. It also gave a viability, T/C [28] of 9.05%, a viability, T/C [29] of 6.17% and a viability, T/C [30] of 7.31%. For the same compound, the viability, T/C [31] was 66.3%, the viability, T/C [32] was 54.9% and the viability, T/C [33] was 15%. It also gave a viability, T/C [34] of 11.1%, a viability, T/C [35] of 12.4% and a viability, T/C [36] of 10.2%.

Compound `O=c1[nH]cc(F)c(=O)[nH]1` + Nc1ccc(C#CCN(C(=O)Cc2ncc(C(F)(F)F)cc2C(F)(F)F)c2ccc(F)cc2)nn1 has an IC50 (second compound 0.0316 µM) of 2150 nM, an IC50 (second compound 0.1 µM) of 2130 nM and an IC50 (second compound 0.316 µM) of 2450 nM. It also gave an IC50 (second compound 1 µM) of 2280 nM, an IC50 (second compound 3.16 µM) of 2330 nM and an IC50 (second compound 10 µM) of 2170 nM. The viability, T/C [1] was 101%, the viability, T/C [2] was 98.7% and the viability, T/C [3] was 100%. It also gave a viability, T/C [4] of 83.4%, a viability, T/C [5] of 33.1% and a viability, T/C [6] of 25.1%. For the same compound, the viability, T/C [7] was 102%, the viability, T/C [8] was 93.5% and the viability, T/C [9] was 93.3%. For the same compound, the viability, T/C [10] was 75.2%, the viability, T/C [11] was 36.5% and the viability, T/C [12] was 22.7%. The viability, T/C [13] was 106%, the viability, T/C [14] was 120% and the viability, T/C [15] was 97.2%. The viability, T/C [16] was 84.4%, the viability, T/C [17] was 39.2% and the viability, T/C [18] was 23.3%. It also gave a viability, T/C [19] of 106%, a viability, T/C [20] of 103% and a viability, T/C [21] of 97.5%. For the same compound, the viability, T/C [22] was 81.6%, the viability, T/C [23] was 37.2% and the viability, T/C [24] was 22.4%. It also gave a viability, T/C [25] of 105%, a viability, T/C [26] of 106% and a viability, T/C [27] of 91%. The viability, T/C [28] was 83.3%, the viability, T/C [29] was 37.2% and the viability, T/C [30] was 21.5%. For the same compound, the viability, T/C [31] was 95.7%, the viability, T/C [32] was 87.1% and the viability, T/C [33] was 92.7%. It also gave a viability, T/C [34] of 87.5%, a viability, T/C [35] of 31.8% and a viability, T/C [36] of 27.8%.
